Patent US10995104B2, “Catalysts for reversing formaldehyde adducts and crosslinks” (Roche Molecular Systems, Inc., priority 2017, dated 2021)

Tested on: methylene-bis-dAMP dimer
Experiment: Reversal of cross-linking of the methylene-bis-dAMP dimer with catalysts, monitored by HPLC
Settings: 5.0 mM catalyst, 1.0 mM dAMP dimer, 50 mM phosphate buffer pH 5.0, 60° C., aliquots at 10-90 minutes (FIG. 3)
Protocol: Reverse crosslinking of the methylene-bis-dAMP dimer (as shown in FIG. 2) were monitored by HPLC. […] For each reaction mixture, an aliquot (10 μl) was taken at 10 minutes, 20 minutes, 40 minutes, 60 minutes and 90 minutes.

Cc1ccc(N)c(B(O)O)c1 [Compound 3, (2-Amino-5-methylphenyl)boronic acid]
reversal of cross-linking (shown as % of dAMP produced), rate compared with no catalyst: rates that are much faster than when no catalyst was added

Cl.Nc1ccccc1B(O)O [Compound 2, 2-Aminophenylboronic acid]
reversal of cross-linking (shown as % of dAMP produced), rate compared with no catalyst: rates that are much faster than when no catalyst was added

CCOP(=O)(OCC)C(N)c1ccccc1.Cl (stereo not shown) [Compound 6, (Aminophenylmethyl)phosphonic acid diethyl ester]
reversal of cross-linking (shown as % of dAMP produced), rate compared with no catalyst: rates that are much faster than when no catalyst was added

[Br][Bi]([Br])[Br] [Compound 7, Bismuth (III) bromide]
reversal of cross-linking (shown as % of dAMP produced), rate compared with no catalyst: rates that are much faster than when no catalyst was added
